SMILES strings stand for the structures. Like-named read-outs stand apart in the source and are kept apart here. Marks after values point to notes of the source that are not given here.

Details of series [1]: method as in PMID 26260337, PMID 16919302. The note with it: read-out: DPPH scavenging IC50; cited from earlier work. On the technique in general: Loss of DPPH colour is used to gauge radical scavenging.
A short description of series [2]: Ferric reducing antioxidant power (FRAP). The following applies: equivalents of Fe^2+, mean ± standard error. The format is biochemical. As to the method:
(§1) N,N-dimethyl-p-phenylenediamine (DMPD) and 2,2′-azino-bis(3-ethylbenzothiazolin-6-sulfonic acid (ABTS) cation radical scavenging and ferric reducing antioxidant power (FRAP) were measured using kits from Bioquochem (Llanera-Asturias, Spain). Antiradical activity by 2,2-diphenyl-1-picrylhydrazyl radical scavenging assay, reducing capacity using Folin–Ciocalteau reagent (FCR), and anti-lipoperoxidant activity using inhibition of lipid peroxidation of rat liver microsomes induced by tert-butyl hydroperoxide were determined as described previously with modifications described in detail in our previous research.

For series [3], the target named is T1, aryl sulfotransferase from rat liver (AST IV) (Rattus norvegicus, UniProt P17988).
T1 construct: made in house; host or cells: E. coli BL21 (DE3) Gold (whole cells used as catalyst)
Nature of the series: Substrate specificity of AST IV (whole E. coli cells, p-NPS donor). Further details: key: +: isolated sulfated product(s) and/or release of p-nitrophenol (p-NP); –: no formation of p-NP and/or isolated sulfated products. The following applies: whole E. coli cells expressing AST IV, 37 °C, 72 h. The format is in vitro ADME. As to the method: The plasmid bearing astIV gene was kindly provided by Prof. L. Elling, RWTH Aachen, Germany. The enzyme was expressed in E. coli BL21 (DE3) Gold as described, with modifications reported in our previous work. Whole E. coli cells producing the enzyme, freshly prepared according to the literature, were employed in the biotransformation experiments as a catalyst.
Silybin, silybin A, silybin B, silychristin, and silydianin (separately, each 50 mg, 0.104 mmol) and p-nitrophenyl sulfate (p-NPS, 35 mg, 0.136 mmol; Sigma-Aldrich, St. Louis, MO, USA) were dissolved in 3 mL DMSO, and 2 g (wet based) of whole cells expressing AST IV resuspended in K-phosphate buffer (pH 7.5, 17 mL) were added. The reaction mixture was incubated on a rotary shaker at 37 °C for 24 h. The cells were then removed by centrifugation (30 min, 5000 rpm, 5404 R Eppendorf, Germany), a new portion of fresh cells (2 g in 15 mL, wet based, resuspended in K-phosphate buffer) were added to the supernatant and incubated for 24 h. This step was repeated once more with a total reaction time of 72 h. The reaction was monitored by HPLC and after 72 h, the reaction mixtures, containing the sulfated product(s), were purified by preparative HPLC employing Asahipak GS-310 20F (Shodex, Tokyo, Japan) column with isocratic elution with 100% methanol. The fraction containing the putative sulfated product(s) was evaporated, dissolved in 1 mL of 80% methanol, and loaded onto a Sephadex LH-20 column (15 g dry weight, 12 mm i.d.) packed and eluted with 80% methanol. Only one sulfated product was obtained; silybin B 20-O-sulfate (14.5 mg, 0.03 mmol, yield 25%), whose identity was confirmed by comparison with previously published data.

A short description of series [4]: Log p, octan-1-ol / phosphate buffer partition. In kind it is physicochemical. The note with it: octan-1-ol / 6.6 mM phosphate buffer pH 7.4, 25 °C. As to the method: The hydrophobicity of the compounds was determined by measuring their partition coefficient P in a mixture of two immiscible phases—octan-1-ol and 6.6 mM phosphate buffer pH 7.4. Stock solutions (0.5 mM) were prepared in octan-1-ol (parent compounds) and in the buffer (sulfated compounds). The stock solutions (150 µL) were mixed with 150 µL of the immiscible phase in microcentrifuge tubes (1.5 mL); shaken for 2 h (750 rpm, 25 °C); and after incubation, the phases were separated. Water phases were diluted 1:1 with the mobile phase (acetonitrile/deionized water/HCO2H, 5:95:0.1; v/v) and analyzed by HPLC using the gradient G3 (see Section 3.1.3). Octan-1-ol phases were evaporated in the stream of air (70 °C), then dissolved in 10 µL of DMSO, and mixed with 90 µL of mobile phase and analyzed by HPLC. The log p values were calculated from the respective peak heights (h) using the formula log p = log(hoctanol/hbuffer). For comparison, log p values were calculated using the Molinspiration property engine v2016.10 (http://www.molinspiration.com, Molinspiration Cheminformatics, Slovensky Grob, Slovakia) (access on 26th October 2017).

Series [5] is described as follows: Folin–Ciocalteu reagent (FCR) reduction. The format is biochemical. The following applies: Folin–Ciocalteau reagent reduction, gallic acid equivalents; mean ± standard error. As to the method: as §1
Series [6] can be described thus: DPPH radical scavenging. In kind it is biochemical. The following applies: mean ± standard error. As to the method: as §1
Series [7] is described as follows: DMPD+ cation radical scavenging. The format is biochemical. The following applies: vitamin C equivalents, mean ± standard error. As to the method:
as §1

Series [8] in a line: Inhibition of lipoperoxidation (Lpx) induced by tert-butyl hydroperoxide. The note with it: rat liver microsomal membranes, mean ± standard error. The format is biochemical. As to the method: as §1
For orientation: Liver microsomes are a subcellular fraction often used to study metabolism.

Series [9] is described as follows: ABTS+ cation radical scavenging. In kind it is biochemical. The following applies: vitamin C equivalents, mean ± standard error. As to the method:
as §1

The nature of series [10]: Stability of the isolated sulfate. The format is physicochemical. The note with it: after isolation. As to the method:
It quickly decomposed into a mixture of at least five products and, therefore, it was not studied further.
Silydianin (150 mg, 0.311 mmol) was sulfated using the same procedure as for silybin. Silydianin-19-O-sulfate was obtained as a yellowish solid (101 mg, 58.3%). Its structure was determined by HRMS (m/z calcd. for C25H21O13 S 561.07083, found 561.07141) and NMR (see Figure S13 and Table S5, Supplementary Material).

T1 sequence (P17988 whole entry): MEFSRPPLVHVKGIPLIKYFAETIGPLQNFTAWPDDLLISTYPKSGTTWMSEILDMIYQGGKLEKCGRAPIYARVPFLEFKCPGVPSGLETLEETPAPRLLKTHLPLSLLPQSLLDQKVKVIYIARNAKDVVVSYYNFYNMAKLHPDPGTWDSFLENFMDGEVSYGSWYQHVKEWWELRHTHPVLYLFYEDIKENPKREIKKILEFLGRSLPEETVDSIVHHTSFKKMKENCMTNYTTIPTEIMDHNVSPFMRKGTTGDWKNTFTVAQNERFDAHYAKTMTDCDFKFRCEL

For `O=C1c2c(O)cc(O)cc2OC(c2ccc(O)c(O)c2)C1O` (centres unmarked) [taxifolin], in [1], the IC50 (usually the midpoint of a concentration-inhibition curve) was 6 to 10 µM.

Consider `COc1cc([C@H]2Oc3cc([C@H]4Oc5cc(O)cc(O)c5C(=O)[C@@H]4O)ccc3O[C@@H]2CO)ccc1O` [Silybin A, silybin A, reference compound], for which the “FRAP [Fe^2+]” value in series [2] was determined as 0.06 ± 0.00 Fe^2+. For the same compound, the “Formation of p-NP” value in series [3] is “– ^c”. Further, the logP (usually a log measure of how a compound divides between an organic and an aqueous phase) at 2 h in series [4] was 1.52. Also, in [5], the “FCR [GAE]” value is listed as 0.33 ± 0.02 ^k GAE. Besides, the IC50 in series [6] amounted to 490 ± 21 µM; in [8], 48.6 ± 0.4 µM. For the same compound, the “DMPD^+ [CE]” value in series [7] is reported as 0.96 ± 0.01 ^n CE. For the same compound, the “ABTS^+ [CE]” value in series [9] is recorded as 1.01 ± 0.03 ^i CE.

Take `COc1cc(C2Oc3cc([C@H]4Oc5cc(O)cc(O)c5C(=O)[C@@H]4O)ccc3OC2CO)ccc1O` (some centres unmarked) [Silybin A/B, Silybin]: the “Formation of p-NP” value in [3] is “+ ^a”.

In the case of `COc1cc(C2C3C=C(C4Oc5cc(O)cc(O)c5C(=O)C4O)C4C2COC4(O)C3=O)ccc1OS(=O)(=O)O` (centres unmarked) [Silydianin-19-O-sulfate], the “Stability of the compound” value is “unstable” in series [10] and “extremely unstable” in series [10] (listed as silydianin-19-O-sulfate).

`COc1cc([C@@H]2Oc3cc([C@H]4Oc5cc(O)cc(O)c5C(=O)[C@@H]4O)ccc3O[C@H]2CO)ccc1O` [Silybin B, silybin B, reference compound]: the “FRAP [Fe^2+]” value in [2] is listed as 0.04 ± 0.00 ^q Fe^2+. The “Formation of p-NP” value in series [3] was “+ ^a”. The compound also returned a logP at 2 h in [4] of 2.17. For the same compound, the “FCR [GAE]” value in series [5] was 0.36 ± 0.03 ^k GAE. The figures for the half-maximal inhibitory concentration (IC50) in series [6] and in series [8] were 546 ± 17 µM and 68.6 ± 2.2 µM, respectively. For the same compound, the “DMPD^+ [CE]” value in series [7] is given as 1.09 ± 0.01 ^n CE. For the same compound, the “ABTS^+ [CE]” value in series [9] is recorded as 0.97 ± 0.05 ^i CE.

`COc1cc(C2Oc3c(O)cc([C@H]4Oc5cc(O)cc(O)c5C(=O)[C@@H]4O)cc3C2CO)ccc1O` (some centres unmarked) [Silychristin, reference compound]: the “FRAP [Fe^2+]” value in series [2] worked out at 0.64 ± 0.06 Fe^2+. In addition, the “Formation of p-NP” value in series [3] was “+ ^a”. In series [4], this compound displayed a logP at 2 h of 1.47. The “FCR [GAE]” value in series [5] is 1.13 ± 0.23 ^m GAE. For the same compound, the IC50 was 37.1 ± 3.1 µM in series [6] and 17.9 ± 0.7 µM in series [8]. Further, the figures for the “DMPD^+ [CE]” value in series [7] and in series [7] (listed as silychristin) were 1.50 ± 0.02^o CE and 1.5 CE, respectively. Moreover, the “ABTS^+ [CE]” value in series [9] amounted to 1.50 ± 0.09 CE.

(Values after paper PMC6121260, “Sulfated Metabolites of Flavonolignans and 2,3-Dehydroflavonolignans: Preparation and Properties” (International Journal of Molecular Sciences, 2018).)
